Experimental data taken from ChEMBL document CHEMBL1141392, “Green tea catechins potentiate triclosan binding to enoyl-ACP reductase from Plasmodium falciparum (PfENR)” (J Med Chem, 2007).

Assays:
[1] = target: T1, Enoyl-acyl-carrier protein reductase (Plasmodium falciparum, UniProt Q965D5); experiment: Inhibition of Plasmodium falciparum ENR
T1 sequence (Q965D5 whole entry): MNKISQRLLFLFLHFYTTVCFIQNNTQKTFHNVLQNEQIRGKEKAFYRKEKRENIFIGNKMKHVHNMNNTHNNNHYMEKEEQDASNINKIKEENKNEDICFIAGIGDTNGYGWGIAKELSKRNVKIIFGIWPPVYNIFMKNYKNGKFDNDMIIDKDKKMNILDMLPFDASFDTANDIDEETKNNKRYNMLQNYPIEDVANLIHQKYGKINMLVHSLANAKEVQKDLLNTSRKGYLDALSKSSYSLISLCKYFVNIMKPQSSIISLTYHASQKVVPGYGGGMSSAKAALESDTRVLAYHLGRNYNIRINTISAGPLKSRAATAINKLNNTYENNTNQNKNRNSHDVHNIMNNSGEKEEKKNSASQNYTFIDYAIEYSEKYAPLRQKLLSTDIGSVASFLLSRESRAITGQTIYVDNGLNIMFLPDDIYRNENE

[2] = target: T2, Enoyl-[acyl-carrier-protein] reductase [NADH] FabI (Escherichia coli K-12, UniProt P0AEK4); experiment: Inhibition of Escherichia coli ENR
T2 sequence (P0AEK4 whole entry): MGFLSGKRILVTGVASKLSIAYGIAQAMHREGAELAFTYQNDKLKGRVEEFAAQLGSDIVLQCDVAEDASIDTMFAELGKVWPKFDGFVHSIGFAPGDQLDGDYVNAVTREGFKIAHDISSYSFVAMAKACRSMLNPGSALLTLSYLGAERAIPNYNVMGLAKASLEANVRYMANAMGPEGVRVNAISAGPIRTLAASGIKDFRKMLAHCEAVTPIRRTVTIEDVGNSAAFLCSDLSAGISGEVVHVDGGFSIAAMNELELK

[3] = target: T1, Enoyl-acyl-carrier protein reductase; experiment: Inhibition of Plasmodium falciparum ENR using NADH substrate
[4] = target: T1, Enoyl-acyl-carrier protein reductase; experiment: Inhibition of Plasmodium falciparum ENR using crotonyl-CoA substrate
[5] = target: T1, Enoyl-acyl-carrier protein reductase; experiment: Inhibition of Plasmodium falciparum ENR in presence of triclosan
[6] = target: T1, Enoyl-acyl-carrier protein reductase; experiment: Inhibition of Plasmodium falciparum ENR in presence of ECG
[7] = target: T1, Enoyl-acyl-carrier protein reductase; experiment: Inhibition of Plasmodium falciparum ENR by fluorescence quenching in presence of EGCG
[8] = target: T1, Enoyl-acyl-carrier protein reductase; experiment: Inhibition of Plasmodium falciparum ENR by fluorescence quenching in presence of ECG
[9] = target: T1, Enoyl-acyl-carrier protein reductase; experiment: Inhibition of Plasmodium falciparum ENR by fluorescence quenching in presence of EGC
[10] = target: T1, Enoyl-acyl-carrier protein reductase; experiment: Inhibition of Plasmodium falciparum ENR by fluorescence quenching in presence of quercetin
[11] = target: T1, Enoyl-acyl-carrier protein reductase; experiment: Inhibition of Plasmodium falciparum ENR by fluorescence quenching in presence of butein
[12] = target: T1, Enoyl-acyl-carrier protein reductase; experiment: Inhibition of Plasmodium falciparum ENR in presence of EGC
[13] = target: T1, Enoyl-acyl-carrier protein reductase; experiment: Inhibition of Plasmodium falciparum ENR in presence of EGCG
[14] = target: T1, Enoyl-acyl-carrier protein reductase; experiment: Inhibition of Plasmodium falciparum ENR in presence of EGCG by dilution assay
[15] = target: T1, Enoyl-acyl-carrier protein reductase; experiment: Inhibition of Plasmodium falciparum ENR in presence of EGC by dilution assay
[16] = target: T1, Enoyl-acyl-carrier protein reductase; experiment: Inhibition of Plasmodium falciparum ENR in presence of ECG by dilution assay
[17] = target: T1, Enoyl-acyl-carrier protein reductase; experiment: Inhibition of Plasmodium falciparum ENR in presence of quercetin by dilution assay
[18] = target: T1, Enoyl-acyl-carrier protein reductase; experiment: Inhibition of Plasmodium falciparum ENR in presence of butein by dilution assay
[19] = target: T1, Enoyl-acyl-carrier protein reductase; experiment: Inhibition of Plasmodium falciparum ENR in presence of quercetin
[20] = target: T1, Enoyl-acyl-carrier protein reductase; experiment: Inhibition of Plasmodium falciparum ENR in presence of butein

SMILES	IC50 [1] [nM]	IC50 [2] [nM]	Ki [3] [nM]	Ki [4] [nM]	Ki [5] [nM]	other results
O=C(/C=C/c1ccc(O)c(O)c1)c1ccc(O)cc1O [BUTEIN]	12500	30000	5500	2970	14	–
O=C(O[C@@H]1Cc2c(O)cc(O)cc2O[C@@H]1c1ccc(O)c(O)c1)c1cc(O)c(O)c(O)c1 [EPICATECHIN GALLATE]	500	10000	291	102	16	–
Oc1cc(O)c2c(c1)O[C@H](c1cc(O)c(O)c(O)c1)[C@H](O)C2 [EPIGALLOCATECHIN]	7000	> 100000	3750	2000	17.6	–
O=C(O[C@@H]1Cc2c(O)cc(O)cc2O[C@@H]1c1cc(O)c(O)c(O)c1)c1cc(O)c(O)c(O)c1 [EPIGALOCATECHIN GALLATE]	250	15000	186	79	8	–
O=c1c(O)c(-c2ccc(O)c(O)c2)oc2cc(O)cc(O)c12 [QUERCETIN]	2500	20000	1090	473	22	–
Oc1cc(Cl)ccc1Oc1ccc(Cl)cc1Cl [TRICLOSAN]	–	–	–	–	–	Ki [6]: 8 nM; Ki [7]: 7.29 nM; Ki [8]: 28.3 nM; Ki [9]: 52.7 nM; Ki [10]: 30.5 nM; Ki [11]: 71 nM; Ki [12]: 8.25 nM; Ki [13]: 1 nM; Ki [14]: 0.0019 nM; Ki [15]: 0.109 nM; Ki [16]: 0.0521 nM; Ki [17]: 0.281 nM; Ki [18]: 0.798 nM; Ki [19]: 10 nM; Ki [20]: 13.7 nM
